Peptide text beside a SMILES is read from it.
Columns and labels:
[1] = tested on: HEK293 human kidney cells; assay: Cell toxicity (MTT assay), HEK293; assay type: cell-based; conditions: copper ions alone, absence of peptides, read-out: LC50 (the source's name)
Experimental: (§1) HEK293 and MCF7 cells were cultured in Dulbecco’s modified Eagle’s medium (DMEM) high glucose medium, with fetal bovine serum (10%), L-glutamine (1%), and PSNS antibiotic (1%). The HepG2 cell line was cultured in Eagle’s minimum essential medium (EMEM), with fetal bovine serum (10%), L-glutamine (1%) and PSNS antibiotic (1%). The THLE-3 cell line was cultured in BGEM medium according to manufacturer’s instructions. All cell line types were cultured at 37°C with 5% CO2. The culture media was changed every 2 days. At 80% confluence, the cells were harvested using 0.25% trypsin and sub-cultured into 75 cm^2 flasks, 24-well plates, or 96-well plates, according to the experiment. The cells were then treated with a range of peptide concentrations suspended in medium without serum for 24 h. After the 24 h treatment, the various toxicity end points were evaluated in the control and peptide-exposed cells.
(§2) Peptides were introduced at various concentrations (three triplicates per concentration) ranging from 0 to 1 mM and incubated with the different cell lines (HEK293/MCF7/HepG2/THLE-3) for 24 h at 37°C. […] Lysates were transferred to 96-well plates and absorption values were collected using a Synergy plate reader at 570 nm wavelength. […] The absorption of the control (without peptide) was determined at 100%; all peptide concentrations were compared to the control sample. […]

HepG2 liver cancer cells = assay: Cell toxicity (MTT assay), HepG2; assay type: cell-based; conditions: copper ions alone, absence of peptides, read-out: LC50 (the source's name)
Experimental: as §1, §2

MCF7 breast cancer cells = assay: Cell toxicity (MTT assay), MCF7; assay type: cell-based; conditions: copper ions alone, absence of peptides, read-out: LC50 (the source's name)
Experimental: as §1, §2

Atox1 = molecular target: T1, Atox1 (Homo sapiens, UniProt O00244); assay: Microscale thermophoresis (MST) binding to Atox1; conditions: neither in the presence nor in the absence of Cu(I)
T1 construct: made in house; host or cells: E. coli Origami 2 (as for ATP7B MBD3-4)
T1 sequence (O00244 1-68): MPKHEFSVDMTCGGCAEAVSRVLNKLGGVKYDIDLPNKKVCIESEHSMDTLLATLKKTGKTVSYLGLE
Experimental: To better understand the EPR and CD experiments, MST binding experiments were performed. MST is a physical phenomenon whereby biomolecules migrate along a temperature gradient according to their size, hydrodynamic radius, charge, and hydration shell. The target biomolecule is fluorescently labeled and monitored over the course of the experiment. An infra-red laser is used to create a temperature gradient for a given time. Since binding interactions can alter the properties listed above, a binding curve can be created with a ligand titration series. Fixed amounts of labelled MBD3-4 or Atox1 were incubated with increasing concentrations of SMD or KER peptides, in the presence or absence of Cu(I) (Figure 3). […]
The labelling was performed with reactive dyes using N-hydroxysuccinimide (NHS)–ester chemistry. […] Purity was monitored by measuring the ratio of protein to dye (spectroscopically, for example, by measuring absorption at 280 nm for protein and 650 nm for the dye; molar absorbance: 250,000 M^−1 cm^−1) after the clean-up procedure.
(§3) MBD3-4 and Atox1 were labeled on lysine residues with red fluorescent NT-647-NHS using the NanoTemper labeling kit. […] Normalized fluorescence was detected at a ratio of [Fnorm = Fhot/Finitial]. Fluorescence was measured before IR-laser heating (Finitial) and after a specific IR-laser heating (Fhot) time. […]

ATP7B MBD3-4 = molecular target: T2, ATP7B MBD3-4 (Homo sapiens, UniProt P35670); assay: Microscale thermophoresis (MST) binding to MBD3-4; conditions: for Kd: in the presence of Cu(I) (40 µM), protein 50 nM
T2 construct: […]; made in house; host or cells: E. coli Origami 2
T2 sequence (P35670 234-439): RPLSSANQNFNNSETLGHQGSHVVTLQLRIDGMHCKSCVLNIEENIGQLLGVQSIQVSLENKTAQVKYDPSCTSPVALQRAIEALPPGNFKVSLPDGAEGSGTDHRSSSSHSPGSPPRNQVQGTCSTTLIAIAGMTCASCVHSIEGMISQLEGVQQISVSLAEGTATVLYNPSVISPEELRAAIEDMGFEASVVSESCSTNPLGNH
Experimental: To better understand the EPR and CD experiments, MST binding experiments were performed. MST is a physical phenomenon whereby biomolecules migrate along a temperature gradient according to their size, hydrodynamic radius, charge, and hydration shell. The target biomolecule is fluorescently labeled and monitored over the course of the experiment. An infra-red laser is used to create a temperature gradient for a given time. Since binding interactions can alter the properties listed above, a binding curve can be created with a ligand titration series. Fixed amounts of labelled MBD3-4 or Atox1 were incubated with increasing concentrations of SMD or KER peptides, in the presence or absence of Cu(I) (Figure 3). […] The measured KD values of the SMD peptide were in the tens of µM range for both Atox1 (39 ± 3 μM) and MBD3-4 (45 ± 4 μM), whereas KER peptide preferentially interacted with Atox1 (20 ± 2 μM). The KD for the interaction with MBD3-4 was slightly higher (36 ± 3 μM).
The labelling was performed with reactive dyes using N-hydroxysuccinimide (NHS)–ester chemistry. The protein concentration was adjusted to 20 μM using HEPES buffer. Briefly, the solid fluorescent dye was dissolved in DMSO at a concentration of about 1.3 mM and mixed thoroughly. Before mixing the protein and dye, the concentration of the dye was adjusted to twice that of the protein using HEPES buffer. Then, the protein and fluorescent dye solutions were mixed at a 1:1 ratio and incubated for 30 min at room temperature in the dark. […] Purity was monitored by measuring the ratio of protein to dye (spectroscopically, for example, by measuring absorption at 280 nm for protein and 650 nm for the dye; molar absorbance: 250,000 M^−1 cm^−1) after the clean-up procedure.
as §3

[2] = molecular target: T3, Atox1, fluorescently labelled (NT-647-NHS) (UniProt O00244 1-68, red fluorescent NT-647-NHS on lysine residues); assay: cell-based or functional assay
T3 sequence (looked up): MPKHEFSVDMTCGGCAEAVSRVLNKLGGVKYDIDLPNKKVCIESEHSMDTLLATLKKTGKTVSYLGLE

[3] = molecular target: ATP7B MBD3-4, fluorescently labelled (NT-647-NHS); assay: MST; with Cu(I) 40 uM; labelled protein 50 nM, peptide titrated; 25 mM Na2HPO4 pH 8, 150 mM NaCl, 0.05% Tween 20; 25 C; Monolith NT.115
ATP7B MBD3-4, fluorescently labelled (NT-647-NHS), sequence (P35670 whole entry): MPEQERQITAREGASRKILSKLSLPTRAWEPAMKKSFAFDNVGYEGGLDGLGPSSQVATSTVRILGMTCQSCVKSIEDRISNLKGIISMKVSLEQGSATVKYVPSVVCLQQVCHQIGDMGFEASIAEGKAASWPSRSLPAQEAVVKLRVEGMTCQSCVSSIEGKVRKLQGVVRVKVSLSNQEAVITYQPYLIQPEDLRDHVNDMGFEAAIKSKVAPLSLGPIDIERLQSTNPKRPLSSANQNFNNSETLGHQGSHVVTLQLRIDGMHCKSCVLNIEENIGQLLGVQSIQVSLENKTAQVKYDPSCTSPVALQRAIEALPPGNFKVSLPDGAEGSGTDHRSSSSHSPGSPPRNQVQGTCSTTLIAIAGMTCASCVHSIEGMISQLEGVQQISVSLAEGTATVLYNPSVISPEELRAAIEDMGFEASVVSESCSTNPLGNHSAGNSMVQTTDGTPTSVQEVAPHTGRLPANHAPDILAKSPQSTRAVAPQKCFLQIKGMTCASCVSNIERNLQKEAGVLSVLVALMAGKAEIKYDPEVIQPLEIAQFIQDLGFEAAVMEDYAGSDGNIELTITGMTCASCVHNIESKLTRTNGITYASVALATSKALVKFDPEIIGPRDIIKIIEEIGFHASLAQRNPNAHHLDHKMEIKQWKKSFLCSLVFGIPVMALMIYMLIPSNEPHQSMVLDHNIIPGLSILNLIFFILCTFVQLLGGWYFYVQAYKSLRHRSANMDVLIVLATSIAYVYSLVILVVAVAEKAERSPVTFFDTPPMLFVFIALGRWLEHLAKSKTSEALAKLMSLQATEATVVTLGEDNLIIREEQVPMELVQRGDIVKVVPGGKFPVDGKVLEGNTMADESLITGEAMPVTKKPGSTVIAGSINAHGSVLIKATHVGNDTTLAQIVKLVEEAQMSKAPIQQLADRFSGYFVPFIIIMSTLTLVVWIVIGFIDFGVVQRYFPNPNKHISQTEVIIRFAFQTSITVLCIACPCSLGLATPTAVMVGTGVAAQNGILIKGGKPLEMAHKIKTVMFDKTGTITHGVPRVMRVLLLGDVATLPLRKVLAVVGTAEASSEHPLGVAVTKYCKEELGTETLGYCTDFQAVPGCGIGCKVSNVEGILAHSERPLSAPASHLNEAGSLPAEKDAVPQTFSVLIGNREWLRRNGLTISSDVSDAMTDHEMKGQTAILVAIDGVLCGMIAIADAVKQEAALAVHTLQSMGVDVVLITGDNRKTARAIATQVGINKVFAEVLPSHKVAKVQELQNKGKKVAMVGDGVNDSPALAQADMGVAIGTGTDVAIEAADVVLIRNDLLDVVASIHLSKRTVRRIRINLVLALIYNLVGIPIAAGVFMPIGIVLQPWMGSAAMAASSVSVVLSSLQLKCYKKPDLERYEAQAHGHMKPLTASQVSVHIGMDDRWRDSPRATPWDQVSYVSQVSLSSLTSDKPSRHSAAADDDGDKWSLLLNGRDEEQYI

[4] = molecular target: ATP7B MBD3-4, fluorescently labelled (NT-647-NHS)
[5] = molecular target: T3, Atox1, fluorescently labelled …; assay: MST; with Cu(I) 40 uM; labelled protein 50 nM, peptide titrated; 25 mM Na2HPO4 pH 8, 150 mM NaCl, 0.05% Tween 20; 25 C; Monolith NT.115; conditions: both partners purified

What does the source list for [Cu+2] [Cu(II)]?
CC50 [1]: 196 µM; CC50 (HepG2 liver cancer cells): 205 µM; CC50 (MCF7 breast cancer cells): 180 µM

Which results are given for GAGAAA [Ala]?
Binding interaction with Atox1 (MST) (Atox1): No binding interaction was observed; Binding interaction with MBD3-4 (MST) (ATP7B MBD3-4; neither in the presence nor in the absence of Cu(I)): No binding interaction was observed

With [Cu+] [Cu(I)] as the molecule, how does the CC50 [1] read?
The CC50 was 150 µM.

What about the CC50 (HepG2 liver cancer cells) of the same molecule?
The CC50 was 170 µM.

And the CC50 (MCF7 breast cancer cells)?
The CC50 was 165 µM.

For C[C@@H](O)[C@H](NC(=O)[C@H](CCCNC(=N)N)NC(=O)[C@H](CCC(=O)O)NC(=O)[C@@H](N)CCCCN)C(=O)N[C@@H](CO)C(=O)N[C@@H](CCCNC(=N)N)C(N)=O [KER, KERTSR] (H-KERTSR-NH2), which Kd (ATP7B MBD3-4) is on record?
Its Kd is 36 ± 3 µM.

CC[C@H](C)[C@H](NC(=O)[C@H](CO)NC(=O)[C@H](CCSC)NC(=O)[C@H](CC(=O)O)NC(=O)[C@H](CCSC)NC(=O)[C@@H](N)CO)C(=O)N[C@@H](CCC(=O)O)C(N)=O [SMD, SMDMSIE] (H-SMDMSIE-NH2) was tested. Which Kd (ATP7B MBD3-4) did it give?
The Kd was 45 ± 4 µM.

B1: SMD peptide (peptide)
peptide: SMDMSIE
notes: Made on rink-amide resin, which would give a C-terminal amide; also called SMDMSIE; source: synthetic peptide (Fmoc, rink-amide resin, reverse phase HPLC; 95.1% purity)
For B1, which “intracellular 64Cu content of MCF7 cells 4 h after 64Cu(II) injection, with peptide against without” value [2] is on record?
Its value is 5 fold.

And the Kd [3]?
The Kd was 45 µM.

And the intracellular 64Cu content of MCF7 cells 4 h after 64Cu(II) injection, with peptide against without [4]?
Its intracellular 64Cu content of MCF7 cells 4 h after 64Cu(II) injection, with peptide against without is 5 fold.

What about the Kd [5] of the same molecule?
The Kd was 39 ± 3 µM.

B2: KER peptide (peptide)
peptide: KERTSR
notes: Made on rink-amide resin, which would give a C-terminal amide; also called KERTSR; source: synthetic peptide (Fmoc, rink-amide resin, reverse phase HPLC; 99.4% purity)
B2 was tested. Which “intracellular 64Cu content of MCF7 cells 4 h after 64Cu(II) injection, with peptide against without” value [2] did it give?
The value was 3 fold.

What about the Kd [3] of the same molecule?
The Kd was 36 µM.

What about the intracellular 64Cu content of MCF7 cells 4 h after 64Cu(II) injection, with peptide against without [4] of the same molecule?
The intracellular 64Cu content of MCF7 cells 4 h after 64Cu(II) injection, with peptide against without was 3 fold.

And the Kd [5]?
Its Kd is 20 ± 2 µM.

— article PMC9589254, “Disrupting Cu trafficking as a potential therapy for cancer” (Frontiers in Molecular Biosciences, 2022)
